Drawing on BindingDB's records for doi:10.1107/S0907444905022638 (University of California San Francisco, 2005), this text covers Ki for one molecule.

What all share (experiment): Thymidylate Synthase (TS) Assay
What all share (conditions): pH 7.4; 20 °C

The target of experiment [1] is Thymidylate synthase (Homo sapiens, UniProt P04818). Here is the method:
(§1) TS was assayed spectrophotometrically in the reaction buffer solution containing (6R, 6S)-5, 10-CH2H4folate. The reaction was initiated by the addition of an amount of enzyme yielding a change in absorbance at 340 nm of 0.016/min in the absence of inhibitor. Ki values were obtained from the linear least-squares fit of the residual activity as a function of inhibitor concentration, using suitable equations for competitive inhibition.

Experiment [2] concerns the target T1, Thymidylate synthase (Cryptococcus neoformans var. neoformans serotype D (strain B-3501A), UniProt P0CS13).
T1 sequence (P0CS13 whole entry): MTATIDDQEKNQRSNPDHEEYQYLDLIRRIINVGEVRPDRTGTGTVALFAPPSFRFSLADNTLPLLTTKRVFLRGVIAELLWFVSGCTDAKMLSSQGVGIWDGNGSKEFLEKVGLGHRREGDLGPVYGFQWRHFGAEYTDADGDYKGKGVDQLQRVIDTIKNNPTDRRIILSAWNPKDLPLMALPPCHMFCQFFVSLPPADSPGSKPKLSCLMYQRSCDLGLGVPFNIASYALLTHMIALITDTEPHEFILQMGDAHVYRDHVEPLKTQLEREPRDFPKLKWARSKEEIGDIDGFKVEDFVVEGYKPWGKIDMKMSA
As for the experimental part:
as §1

The target of experiment [3] is T2, Thymidylate synthase (Lacticaseibacillus casei, UniProt P00469).
T2 sequence (P00469 whole entry): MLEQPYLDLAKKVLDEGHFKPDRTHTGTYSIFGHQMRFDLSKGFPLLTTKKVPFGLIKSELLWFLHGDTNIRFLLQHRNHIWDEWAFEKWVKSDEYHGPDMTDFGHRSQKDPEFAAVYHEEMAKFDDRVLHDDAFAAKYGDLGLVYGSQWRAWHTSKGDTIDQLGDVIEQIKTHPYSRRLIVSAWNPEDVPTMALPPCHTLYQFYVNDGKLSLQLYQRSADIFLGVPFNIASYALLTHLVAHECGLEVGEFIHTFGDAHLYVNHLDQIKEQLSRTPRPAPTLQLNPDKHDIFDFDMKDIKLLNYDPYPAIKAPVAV
As for the experimental part:
as §1

Experiment [4] deals with T3, Thymidylate synthase (Pneumocystis carinii, UniProt P13100).
T3 sequence (P13100 whole entry): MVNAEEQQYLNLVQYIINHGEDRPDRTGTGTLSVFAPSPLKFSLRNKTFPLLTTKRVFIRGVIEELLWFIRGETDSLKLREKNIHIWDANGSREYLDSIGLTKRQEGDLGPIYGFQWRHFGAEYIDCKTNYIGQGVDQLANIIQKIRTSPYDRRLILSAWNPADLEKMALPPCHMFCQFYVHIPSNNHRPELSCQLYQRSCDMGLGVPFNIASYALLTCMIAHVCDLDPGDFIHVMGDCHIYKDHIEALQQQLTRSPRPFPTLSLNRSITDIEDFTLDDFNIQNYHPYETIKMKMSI
As for the experimental part: as §1

The target in experiment [5] is Thymidylate synthase (Escherichia coli (strain K12), UniProt P0A884). Here is the method:
as §1

The structures appear in SMILES notation.

Chain of Thymidylate synthase (Escherichia coli (strain K12), UniProt P0A884) (P0A884 whole entry): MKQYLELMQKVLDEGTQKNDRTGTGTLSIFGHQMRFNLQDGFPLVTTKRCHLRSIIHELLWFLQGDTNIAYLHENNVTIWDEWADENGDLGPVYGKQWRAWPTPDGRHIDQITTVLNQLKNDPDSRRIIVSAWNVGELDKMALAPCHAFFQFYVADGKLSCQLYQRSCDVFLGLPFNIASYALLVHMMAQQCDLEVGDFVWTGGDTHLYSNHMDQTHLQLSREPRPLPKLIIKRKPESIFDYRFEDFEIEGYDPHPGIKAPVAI
Chain of Thymidylate synthase (Homo sapiens, UniProt P04818) (P04818 whole entry): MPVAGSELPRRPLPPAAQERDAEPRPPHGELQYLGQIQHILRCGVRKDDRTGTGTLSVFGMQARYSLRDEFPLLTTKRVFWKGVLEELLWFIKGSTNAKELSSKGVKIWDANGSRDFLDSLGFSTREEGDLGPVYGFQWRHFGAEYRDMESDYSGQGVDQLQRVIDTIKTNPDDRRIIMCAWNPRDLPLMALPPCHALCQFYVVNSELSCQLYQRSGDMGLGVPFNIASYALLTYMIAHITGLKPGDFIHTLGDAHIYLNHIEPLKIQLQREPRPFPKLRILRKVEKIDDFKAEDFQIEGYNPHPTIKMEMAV

As to `O=C1OC(c2ccc(O)c(Br)c2)(c2ccc(O)c(Br)c2)c2cccc3c(Cl)ccc1c23` [4,4-bis(3-bromo-4-hydroxyphenyl)-10-chloro-3-oxatricyclo[7.3.1.0^{5,13}]trideca-1(12),5(13),6,8,10-pentaen-2-one], the Ki (usually the dissociation constant of the complex between target and ligand, obtained from inhibition or displacement) on Thymidylate synthase [1] is above 245 µM; at Thymidylate synthase [2], 4.1 µM; on Thymidylate synthase [3], 0.8 µM; on Thymidylate synthase [4], 28 µM; at Thymidylate synthase [5], 4.1 µM.
